Source: ChEMBL document CHEMBL1154635, “Mitoxantrone analogues as ligands for a stem-loop structure of tau pre-mRNA” (J Med Chem, 2009)

How the values were obtained:
[1] = biological target: Nucleic Acid; experiment: Displacement of fluorescent pyrene-neomycin conjugate from tau stem-loop RNA; type: nucleic-acid assay
[2] = biological target: Nucleic Acid; experiment: Binding affinity to tau stem-loop RNA assessed as inhibition of RNA stem-loop unfolding; type: nucleic-acid assay

SMILES	EC50 [1]	IC50 [2]
NCCNCCNCCNc1ccc(NCCNCCNCCN)c2c1C(=O)c1c(O)ccc(O)c1C2=O	130 nM	130 nM
CC(C)(C)OC(=O)NCCNCCNc1ccc(NCCNCCO)c2c1C(=O)c1c(O)ccc(O)c1C2=O	12000 nM	2400 nM
Nc1ccc(N)c2c1C(=O)c1c(O)ccc(O)c1C2=O	> 100000 nM	> 100000 nM
Nc1ccc(NCCNCCO)c2c1C(=O)c1c(O)ccc(O)c1C2=O	29000 nM	5800 nM
O=C1c2c(O)ccc(O)c2C(=O)c2c(NCCOCCO)ccc(NCCNCCO)c21	14000 nM	5700 nM
Nc1ccc(N)c2c1C(=O)c1c(N)ccc(N)c1C2=O	> 100000 nM	> 100000 nM
O=C1c2c(F)ccc(F)c2C(=O)c2c(NCCNCCO)ccc(NCCNCCO)c21	16000 nM	2300 nM
NCCNCCNc1ccc(NCCNCCN)c2c1C(=O)c1c(O)ccc(O)c1C2=O	160 nM	130 nM
O=C1c2c(O)ccc(NCCNCCO)c2C(=O)c2c(NCCNCCO)ccc(O)c21	4400 nM	1500 nM
NCCNCCNCCNc1ccc(NCCNCCO)c2c1C(=O)c1c(O)ccc(O)c1C2=O	380 nM	230 nM
Nc1ccc(O)c2c1C(=O)c1c(N)ccc(O)c1C2=O	> 100000 nM	> 100000 nM
O=C1c2c(O)ccc(O)c2C(=O)c2c(NCCNCCO)ccc(F)c21	75000 nM	5700 nM
O=C1c2c(NCCNCCO)ccc(NCCNCCO)c2C(=O)c2c(NCCNCCO)ccc(NCCNCCO)c21	1200 nM	340 nM
O=C1c2c(O)ccc(O)c2C(=O)c2c(NCCNCCO)ccc(NCCNCCO)c21 [MITOXANTRONE]	890 nM	460 nM
O=C1c2c(O)ccc(NCCNCCO)c2C(=O)c2c(NCCNCCO)ccc(NCCNCCO)c21	800 nM	420 nM
NCCNCCNc1ccc(NCCNCCO)c2c1C(=O)c1c(O)ccc(O)c1C2=O	310 nM	180 nM
